≈ marks a conversion by molar mass, not a printed value.

One series concerns MRC5. Briefly: Cytotoxicity against human MRC5 cells. It is filed as cell-based.
For series [1], the system named is Trypanosoma brucei brucei. The series is described as follows: Antitrypanosomal activity against Trypanosoma brucei brucei GUTat 3.1 after 72 hrs by AlamarBlue assay. The series is classed as functional, organism-based. Conditions: GUTat 3.1, 72 h.
Series [2] can be described thus: Selectivity index, ratio of IC50 for human MRC5 cells to IC50 for Trypanosoma brucei brucei GUTat 3.1. Conditions: read-out: Ratio IC50. It is filed as toxicity, cell-based.

By IC50 is commonly meant the concentration that gives 50% inhibition. Read a high IC50 as weaker potency. With `CC1=C2CCC=C3C(=O)OC[C@]32CCC2=C1[C@H](c1ccoc1)OC2=O`, the figures for the IC50 (with MRC5; in series [1]) were 16.2 µg/mL (≈ 47.8 µM) and greater than 12.5 µg/mL, respectively.
For `NCCCC(N)(C(=O)O)C(F)F` (stereo not given) [EFLORNITHINE], in series [2], the selectivity ratio is greater than 44. In the series on MRC5, this molecule showed an IC50 greater than 100 µg/mL.
For the molecule `COCO[C@H]1C=C2C(=O)OC[C@]23C=CC2=C(C(C)=C3C1)[C@H](c1ccoc1)OC2=O`, the selectivity ratio in series [2] was determined as 1.73. Moreover, the IC50 in the series on MRC5 turned out to be 2 µg/mL (≈ 5.05 µM); in series [1] it was 1.15 µg/mL (≈ 2.9 µM).
Regarding `Cc1ccc(C(=O)Nc2ccc(S(=O)(=O)O)c3cc(S(=O)(=O)O)cc(S(=O)(=O)O)c23)cc1NC(=O)c1cccc(NC(=O)Nc2cccc(C(=O)Nc3cc(C(=O)Nc4ccc(S(=O)(=O)O)c5cc(S(=O)(=O)O)cc(S(=O)(=O)O)c45)ccc3C)c2)c1` [SURAMIN], the selectivity ratio in series [2] is greater than 63. Besides, in the series with MRC5, the IC50 was greater than 100 µg/mL.
Regarding `CCC(=O)O[C@H]1C=C2C(=O)OC[C@]23C=CC2=C(C(C)=C3C1)[C@H](c1ccoc1)OC2=O`, the selectivity ratio in series [2] turned out to be 0.59. Also, the IC50 with MRC5 turned out to be 1.41 µg/mL (≈ 3.45 µM); in series [1], 2.39 µg/mL (≈ 5.85 µM).
As to `COCO[C@@H]1CC2=C(C)C3=C(C=C[C@]24COC(=O)[C@@H]4C1)C(=O)O[C@H]3c1ccoc1`, in series [1], the IC50 was greater than 12.5 µg/mL.
Turning to `CCNC(=O)O[C@H]1C=C2C(=O)OC[C@]23C=CC2=C(C(C)=C3C1)[C@H](c1ccoc1)OC2=O`, the selectivity ratio in series [2] stood at 0.9. In addition, the IC50 in the series on MRC5 amounted to 0.18 µg/mL (≈ 0.425 µM); in series [1], 0.2 µg/mL (≈ 0.472 µM).
`CC1=C2C[C@@H](OC(=O)Nc3ccccc3)C=C3C(=O)OC[C@]32C=CC2=C1[C@H](c1ccoc1)OC2=O`: in series [2], the selectivity ratio was 2.41. Besides, the IC50 was determined as 17.3 µg/mL (≈ 36.6 µM) with MRC5 and 7.17 µg/mL (≈ 15.2 µM) in series [1].
As to `CCCCNC(=O)O[C@H]1C=C2C(=O)OC[C@]23C=CC2=C(C(C)=C3C1)[C@H](c1ccoc1)OC2=O`, the selectivity ratio in series [2] is 7.29. The IC50 in the series on MRC5 came out at 44.3 µg/mL (≈ 98.1 µM); in series [1], 6.08 µg/mL (≈ 13.5 µM).
For `CCCC(=O)O[C@@H]1CC2=C(C)C3=C(C=C[C@]24COC(=O)[C@@H]4C1)C(=O)O[C@H]3c1ccoc1`, the selectivity ratio in series [2] turned out to be 1240. The IC50 with MRC5 turned out to be 68 µg/mL (≈ 160 µM); in series [1], 0.055 µg/mL (≈ 0.13 µM).
With `CC1=C2C[C@@H](O)C=C3C(=O)OC[C@]32C=CC2=C1[C@H](c1ccoc1)OC2=O`, in series [2], the selectivity ratio is 1.17. The IC50 in the series with MRC5 is 0.84 µg/mL (≈ 2.38 µM); in series [1] it was 0.72 µg/mL (≈ 2.04 µM).
The like results for `CCCNC(=O)O[C@@H]1CC2=C(C)C3=C(C=C[C@]24COC(=O)[C@@H]4C1)C(=O)O[C@H]3c1ccoc1` were, in that order, 8.51, 66.2 µg/mL (≈ 151 µM) and 7.77 µg/mL (≈ 17.7 µM).
On to `CC(=O)O[C@@H]1CC2=C(C)C3=C(C=C[C@]24COC(=O)[C@@H]4C1)C(=O)O[C@H]3c1ccoc1`, for which, in series [2], the selectivity ratio is greater than 12.9. For the same molecule, the IC50 was greater than 100 µg/mL in the series with MRC5 and 7.73 µg/mL (≈ 19.5 µM) in series [1].
The corresponding values for `CCCC(=O)O[C@H]1C=C2C(=O)OC[C@]23C=CC2=C(C(C)=C3C1)[C@H](c1ccoc1)OC2=O` are 1.01, 1.05 µg/mL (≈ 2.49 µM) and 1.04 µg/mL (≈ 2.46 µM).
Consider `CCNC(=O)O[C@@H]1CC2=C(C)C3=C(C=C[C@]24COC(=O)[C@@H]4C1)C(=O)O[C@H]3c1ccoc1`, for which, in series [1], the IC50 was greater than 12.5 µg/mL.
Regarding `CC1=C2C[C@@H](OC(=O)Nc3ccccc3)C[C@H]3C(=O)OC[C@@]23C=CC2=C1[C@H](c1ccoc1)OC2=O`, the selectivity ratio in series [2] was greater than 9.5. The IC50 is greater than 100 µg/mL with MRC5 and 10.5 µg/mL (≈ 22.3 µM) in series [1].
The like results for `CCC(=O)O[C@@H]1CC2=C(C)C3=C(C=C[C@]24COC(=O)[C@@H]4C1)C(=O)O[C@H]3c1ccoc1` were, in that order, 11.9, 63.5 µg/mL (≈ 155 µM) and 5.33 µg/mL (≈ 13 µM).
Take `CCC(=O)OC1=CC2=C(C)C3=C(C=C[C@]24COC(=O)[C@@H]4C1)C(=O)O[C@H]3c1ccoc1`: in series [2], the selectivity ratio is 4.06. Also, the IC50 in the series on MRC5 was found to be 22.6 µg/mL (≈ 55.3 µM); in series [1], 5.56 µg/mL (≈ 13.6 µM).
Regarding `CC1=C2C[C@@H](O)C[C@H]3C(=O)OC[C@@]23C=CC2=C1[C@H](c1ccoc1)OC2=O`, in series [1], the IC50 is greater than 12.5 µg/mL.
Turning to `CC(=O)OC1=CC2=C(C)C3=C(C=C[C@]24COC(=O)[C@@H]4C1)C(=O)O[C@H]3c1ccoc1`, the selectivity ratio in series [2] was determined as 4.14. For the same molecule, the IC50 in the series with MRC5 came out at 17.8 µg/mL (≈ 45.1 µM); in series [1] it was 4.29 µg/mL (≈ 10.9 µM).
For the molecule `CC1=C2C=CC[C@H]3C(=O)OC[C@@]23C=CC2=C1[C@H](c1ccoc1)OC2=O`, in series [1], the IC50 was greater than 12.5 µg/mL.
With `N=C(N)c1ccc(OCCCCCOc2ccc(C(=N)N)cc2)cc1` [PENTAMIDINE], in series [2], the selectivity ratio was 3350. The same molecule returned an IC50 in series [1] of 0.0017 µg/mL (≈ 0.00499 µM).
With `CCCC(=O)OC1=CC2=C(C)C3=C(C=C[C@]24COC(=O)[C@@H]4C1)C(=O)O[C@H]3c1ccoc1`, in series [2], the selectivity ratio is 5.54. Further, the IC50 in the series with MRC5 stood at 21.6 µg/mL (≈ 51 µM); in series [1] it was 3.89 µg/mL (≈ 9.21 µM).
As for `CC(=O)O[C@H]1C=C2C(=O)OC[C@]23C=CC2=C(C(C)=C3C1)[C@H](c1ccoc1)OC2=O`, the selectivity ratio in series [2] came out at 1.22. Also, the results for the IC50 (in the series with MRC5; in series [1]) were 0.84 µg/mL (≈ 2.13 µM) and 0.69 µg/mL (≈ 1.75 µM), respectively.

Values taken from ChEMBL document CHEMBL3102774, “Semisynthesis of salviandulin E analogues and their antitrypanosomal activity” (Bioorg Med Chem Lett, 2014).
